Paper PMC10257291, “Biological activities of extracts and compounds from Thai Kae-Lae (Maclura cochinchinensis (Lour.) Corner)” (BMC Complementary Medicine and Therapies, 2023)
“Also recorded” adds a separate entry of the source.

Experiments:
MCF-7 cells = test: Cell migration assay (wound healing scratch); format: cell-based, human; conditions: non-toxic dose, after 24 h of wounding
Method: Inhibitory effect of the extracts on cell migration of MCF-7 cells was assessed by wound healing scratch assays. First, cells were plated into 24-well plates and incubated in a CO2 incubator with humidified atmosphere of 5% CO2. After reaching the confluent monolayer forms, a longitudinal wound was created by scratching using SPLTM Scar Scratcher. Then, the non-toxic dose of each extract in complete DMEM medium was added into each well and cell migration was monitored and observed under Leica DM IL LED inverted microscopy and the images of cell-free area were captured at 0, 6, 12, and 24 h after wounding, then measured using ImageJ software. The percentage of wound width was calculated by the following formula:6 Woundwidth(%)=(Cell-[…] Where “Cell-free […]” is the cell-free area at any time point of imaging while “Cell-free area0.h” is the cell-free area at the beginning of wounding.

DPPH assay = conditions: compared in words
Method: The DPPH^• scavenging activity of crude fractional extracts and their biological active compounds were investigated using DPPH assay. Briefly, the sample (20 μL) was mixed with 167 μM DPPH solution (180 μL). The combined mixture was incubated at room temperature (25 °C) in the dark for 30 min before assessing the UV absorbance at 520 nm with a microplate reader (Beckman CoulterDTX880, Fullerton, CA, USA). The DPPH^• scavenging activity was presented in terms of the percentage of inhibition that was calculated using the following equation: 2 %DPPH^·inhibition=A-B/A×100 A is the UV absorbance of the mixture in the absence of a sample solution, and B is the UV absorbance of the mixture in the […] of a sample solution. L-ascorbic acid served as a positive control. All experiments were conducted in triplicate.

ABTS assay = conditions: compared in words
Method: Briefly, the sample (20 μL) was mixed with of the ABTS^•^+ solution (180 μL) that had been prepared overnight. The combined mixture was incubated at room temperature (25 °C) for 5 min before assessing the UV absorbance at 750 nm with a microplate reader (Spectrostar Nano, BMG Labtech GmbH, Ortenberg, Germany). The findings were described as Trolox equivalent antioxidant capacity (TEAC). All experiments were conducted in triplicate.

FRAP assay = conditions: compared in words
Method: Briefly, sample (20 μL) was mixed with FRAP solution (180 μL). The combined mixture was incubated at room temperature (25 °C) in the dark for 5 min before assessing the UV absorbance was measured at 595 nm with a microplate reader (Beckman CoulterDTX880, Fullerton, CA, USA). The findings were described as equivalent concentration (EC1). L-ascorbic acid served as a positive control. All experiments were conducted in triplicate.

WT1 protein [1] = test: WT1 protein expression by Western blot in KG-1a cells; format: cell-based, human; conditions: IC20 value, 48 h, vs vehicle control
Method: (§1) Leukaemic stem cells (KG-1a) and leukaemic cells (EoL-1 and K562) were used as cell models which overexpressed WT1 protein expression. Cells were treated with crude fractional extracts and active compounds at a 20% growth inhibition (IC20 value) of each extract. Following 48-h of incubation, cells were washed. The whole protein was extracted using RIPA buffer. The protein concentration was determined by the Pierce™ BCA Protein Assay Kit (ThermoFisher Scientific, IL, USA). Extracted protein sample at 30 − 50 μg was loaded to 12% SDS-PAGE and then transferred to PVDF membranes. The method was done as previously described. The specific protein bands were determined by Luminata™ Forte Western HRP substrate (Merck, Darmstadt, Germany) and exposed to X-ray film (Sakura, Japan). Quantity One 1-D Analysis software (Bio-Rad, USA) was used to quantify densitometry. The density values of WT1 bands were normalized to GAPDH bands.

EoL-1 cells = test: Total cell number by trypan blue exclusion, EoL-1 cells; format: cell-based, human; conditions: IC20 value, 48 h, vs vehicle control
Method: (§2) According to the principle of trypan blue exclusion, viable cells with intact membranes can exclude trypan blue dye, while dead cells with compromised membranes are stained by the trypan blue dye solution. A cell suspension and trypan blue dye solution (0.2%) were mixed, and viable and dead cells were counted under microscope using a hemacytometer. Then, the percentage of viable cells was calculated. KG-1a, EoL-1 and K562 cells were cultured with crude fractional extracts and active pure compounds at various concentrations (10 − 20% growth inhibition; IC10 − IC20 values) of each extract for 48 h, at a 20% growth inhibition (IC20 value) of each extract for 24 and 48 h. Following incubation, cells were harvested, and the total cell number was counted using trypan blue exclusion method. Three independent experiments were plotted as a dose–response curve and compared with the vehicle control. Meanwhile, the total cell number of each cell line after fractional extract and pure compound treatments at 24 and 48 h were calculated and plotted as a time-response curve. Slopes from each graph were considered as the rate of cell proliferation.

NO = test: Nitric oxide measurement in LPS-stimulated RAW 264.7 cells; format: cell-based, mouse; conditions: sample at IC20 value; vs dexamethasone; LPS 1 μg/mL
Method: Mouse monocyte macrophage RAW 264.7 cells (American Type Culture Collection, ATCCTIB-71) were stimulated with lipopolysaccharide (LPS) or phytohemagglutinin (PHA). The LPS treated RAW 264.7 cells served as a vehicle control, of which the NO production, and the secreted cytokines were defined as 100%, whereas a negative control was non-treated RAW 264.7 cells. Dexamethasone (an anti-inflammatory drug) was used as a positive control.
Briefly, 1 × 10^5 cells/well in DMEM were seeded and incubated for 24 h in a CO2 incubator set at 37 °C and 5% CO2/95% humidified air. Then cells were treated with Kae-Lae extracts or purified compounds. Following 2-h of incubation in a CO2 incubator, LPS was added to make a final concentration of 1 μg/mL. After 24 h in a CO2 incubator, the media were removed and centrifuged at 13,500 × g for 10 min. The supernatant was analysed for the level of NO using Total Nitric Oxide Assay kit, according to the manufacturer’s protocol (Invitrogen™, ThermoFisher Scientific, MA, USA). The optical density was measured at 540 nm using a multimode detector (Beckman CoulterDTX880, Fullerton, CA, USA).
NO inhibitions were calculated using the following equation:
3 %NOinhibition=A-B/A×100
A is the optical density of the mixture without the sample, while B is the optical density of the mixture with the sample. Dexamethasone was used as a positive control. […]

KG-1a cells [2] = test: Rate of proliferation, KG-1a cells; format: cell-based, human; conditions: for decrease of rate of proliferation, KG-1a cells: IC20 value, 24 and 48 h (time-response), vs control; for rate of cell proliferation, KG-1a cells (in words): concentrations IC10 − IC20 values, 48 h
Method: as §2

KG-1a cells [3] = test: Total cell number by trypan blue exclusion, KG-1a cells; format: cell-based, human; conditions: IC20 value, 48 h, vs vehicle control
Method: as §2

WT1 protein [4] = test: WT1 protein expression by Western blot in EoL-1 cells; format: cell-based, human; conditions: IC20 value, 48 h, vs vehicle control
Method: as §1

SMILES	wound width (MCF-7 cells) [%]	DPPH• inhibition (DPPH assay)	TEAC (ABTS antioxidant activity) (ABTS assay)	EC1 (FRAP antioxidant activity) (FRAP assay)	suppression of WT1 protein expression in KG-1a cells (WT1 protein [1]) [%]	decrease of total cell number, EoL-1 cells (EoL-1 cells) [%]	NO inhibition (NO)	decrease of rate of proliferation, KG-1a cells (KG-1a cells [2])	rate of cell proliferation, KG-1a cells (in words) (KG-1a cells [2])	decrease of total cell number, KG-1a cells (KG-1a cells [3]) [%]	suppression of WT1 protein expression in EoL-1 cells (WT1 protein [4]) [%]	suppression of WT1 protein expression in EoL-1 cells (WT1 protein [4]; listed as resveratrol) [%]	suppression of WT1 protein expression in KG-1a cells (WT1 protein [1]; listed as resveratrol) [%]
O=c1c(O)c(-c2ccc(O)cc2O)oc2cc(O)cc(O)c12 [Morin, 2’,3,4’,5,7-pentahydroxyflavonone]	60.5 ± 3.8	significantly more potent than ascorbic acid	comparable TEAC and EC1 values with those of ascorbic acid	comparable TEAC and EC1 values with those of ascorbic acid	32.89 ± 8.76								
O=c1c(O)c(-c2ccc(O)c(O)c2)oc2cc(O)cc(O)c12 [Quercetin, quercetin]		significantly more potent than ascorbic acid	comparable TEAC and EC1 values with those of ascorbic acid	comparable TEAC and EC1 values with those of ascorbic acid		23.25	potent inhibitory activities against NO; also recorded: significantly more potent inhibition of IL-2, TNF-α, and NO than dexamethasone	significantly decreasing rates of proliferation	significantly decreasing rate of cell proliferation				
Oc1ccc(/C=C/c2cc(O)cc(O)c2)cc1 [Resveratrol, resveratrol]	32.8 ± 0.7					74.14		86.02%	significantly decreasing rate of cell proliferation	39.23	76.73	76.73 ± 4.08	60.27 ± 11.44
